From ChEMBL document CHEMBL1201862, “PubChem BioAssay data set” (2004)
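96-well plates; 48 h exposure; 5 concentrations. Endpoints by linear interpolation between flanking doses. Not reached: highest tested concentration assigned. The concentration for 50% growth inhibition is given as GI50.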 Activity calls are given as the source filed them. No stated cut-off is given here; in the data, active = GI50 up to about 1.1 µM and inactive = higher.

How the values were obtained:
Experiment in all cases: DTP human tumour cell line panel, 48 h
786-0 = test system: 786-0
ACHN = test system: ACHN
DU-145 = test system: DU-145
EKVX = test system: EKVX
HCC 2998 = test system: HCC 2998
HCT-15 = test system: HCT-15
HL-60 = test system: HL-60
HOP-62 = test system: HOP-62
K562 = test system: K562
Malme-3M = test system: Malme-3M
NCI-H226 = test system: NCI-H226
NCI/ADR-RES = test system: NCI/ADR-RES
OVCAR-3 = test system: OVCAR-3
OVCAR-5 = test system: OVCAR-5
SF-295 = test system: SF-295
SK-MEL-28 = test system: SK-MEL-28
SK-MEL-5 = test system: SK-MEL-5
SR = test system: SR
TK-10 = test system: TK-10
UACC-62 = test system: UACC-62

| SMILES | GI50 (786-0) | GI50 (ACHN) | GI50 (DU-145) | GI50 (EKVX) | GI50 (HCC 2998) | GI50 (HCT-15) [µM] | GI50 (HL-60) | GI50 (HOP-62) | GI50 (K562) | GI50 (Malme-3M) | GI50 (NCI-H226) | GI50 (NCI/ADR-RES) | GI50 (OVCAR-3) | GI50 (OVCAR-5) | GI50 (SF-295) | GI50 (SK-MEL-28) | GI50 (SK-MEL-5) | GI50 (SR) | GI50 (TK-10) | GI50 (UACC-62) |
| --- | --- | --- | --- | --- | --- | --- | --- | --- | --- | --- | --- | --- | --- | --- | --- | --- | --- | --- | --- | --- |
| Cc1c(C)n(-c2ccccc2)c2nc([S+](C)[O-])nc([S+](C)[O-])c12 (stereo not given) | 2.56 µM (inactive) | 5.83 µM (inactive) | 14.4 µM (inactive) | 6.92 µM (inactive) | 15.2 µM (inactive) | 5 | 1.38 µM (inactive) | 18.4 µM (inactive) | 2.09 µM (inactive) | 1.98 µM (inactive) | 17.9 µM (inactive) | 22.9 µM (inactive) | 2.61 µM (inactive) | 15.3 µM (inactive) | 17.6 µM (inactive) | 4.15 µM (inactive) | 2.35 µM (inactive) | 0.809 µM (active) | 1.52 µM (inactive) | 6.03 µM (inactive) |
| CC1(C)C(O)c2ccccc2OC1N1CCN(C2Oc3ccccc3C(O)C2(C)C)CC1 (stereo not given) | > 100 µM (inactive) | > 100 µM (inactive) | > 100 µM (inactive) | > 100 µM (inactive) | > 100 µM (inactive) | > 100 | > 100 µM (inactive) | > 100 µM (inactive) | > 100 µM (inactive) | > 100 µM (inactive) | > 100 µM (inactive) | > 100 µM (inactive) | > 100 µM (inactive) | > 100 µM (inactive) | > 100 µM (inactive) | > 100 µM (inactive) | > 100 µM (inactive) | > 100 µM (inactive) | > 10 µM (inactive) | > 100 µM (inactive) |
| CNc1ncc(-c2nnnn2-c2ccccc2)c(CN(C)C)n1 | > 100 µM (inactive) | > 100 µM (inactive) | > 100 µM (inactive) | > 100 µM (inactive) | > 100 µM (inactive) | > 100 | > 100 µM (inactive) | > 100 µM (inactive) | > 100 µM (inactive) | > 100 µM (inactive) | > 100 µM (inactive) | > 100 µM (inactive) | > 100 µM (inactive) | > 100 µM (inactive) | > 100 µM (inactive) | > 100 µM (inactive) | > 100 µM (inactive) | > 100 µM (inactive) | > 100 µM (inactive) | > 100 µM (inactive) |
| Cc1cc(C)nc(SC(C)C(=O)N/N=C/c2ccc(OCc3ccccc3)cc2)n1 (stereo not given) | 36.6 µM (inactive) | 25.2 µM (inactive) | 37.7 µM (inactive) | 25.2 µM (inactive) | 28.1 µM (inactive) | 26.4 | 14.5 µM (inactive) | 36 µM (inactive) | 6.11 µM (inactive) | 22.3 µM (inactive) | 18.9 µM (inactive) | 21.8 µM (inactive) | 19.7 µM (inactive) | 78.9 µM (inactive) | 19.1 µM (inactive) | 53.2 µM (inactive) | 7.03 µM (inactive) | 7.89 µM (inactive) | 27.2 µM (inactive) | 14.5 µM (inactive) |
| N#C[BH2-][n+]1ccc(C(=O)NNCc2cccc(C(F)(F)F)c2)cc1 | 4.83 µM (inactive) | 33.7 µM (inactive) | 33.1 µM (inactive) | 27.3 µM (inactive) | 7.11 µM (inactive) | 21.3 | 23.4 µM (inactive) | 12.8 µM (inactive) | 20.5 µM (inactive) | 3.54 µM (inactive) | 3.27 µM (inactive) | 11.6 µM (inactive) | 10.9 µM (inactive) | 21.2 µM (inactive) | 6.68 µM (inactive) | 5.5 µM (inactive) | 1.83 µM (inactive) | 26.9 µM (inactive) | 27.3 µM (inactive) | 4.59 µM (inactive) |
